Experimental data: patent US11332467B2, “Solid state forms of palbociclib dimesylate” (PLANTEX LTD., priority 2016, dated 2022)

Assay: Specific surface area (SSA), BET nitrogen adsorption
Type: physicochemical
Conditions: 7 point BET in the range 0.05-0.20 P/Po, triplicate determination, Palbociclib Form A obtained by Example 6
Description: Specific Surface Area (SSA) Method
SSA measurement based on BET-nitrogen adsorption were carried out using a Micromeritics TriStar II Plus 3030 specific surface area analyzer together with Micromeritics VacPrep 061 degassing station.
Software version: Microactive for TriStar II Plus v 2.03
Sample tube: ½″ round bottom cell with glass filler rods
Sample masses*: Approximately % full cell
Sample preparation: VacPrep 061, nitrogen stream
Out gassing conditions: 16 hrs at 25° C. under vacuum
Isothermal collection points: 11 point BET in the range 0.05-0.30 P/Po
Isothermal data analysis range: 7 point BET in the range 0.05-0.20 P/Po
Outgas test duration: 180 s
Equilibration interval: 10 s
Equilibration timeout: 600 s
Calculations and Reporting: The specific surface area was reported in the range 0.05-0.20 P/Po using 7 point BET from a triplicate determination.

SSA (specific surface area): 4.9 m^2/g
Compound: CC(=O)c1c(C)c2cnc(Nc3ccc(N4CCNCC4)cn3)nc2n(C2CCCC2)c1=O [Palbociclib, 6-Acetyl-8-cyclopentyl-5-methyl-2-[[5-(1-piperazinyl)-2-pyridinyl]amino]pyrido[2,3-d]pyrimidin-7(8H)-one]
